Assay results: patent US20230052528A1 (priority 2019, published 2023)
Read-outs that look alike come from different tables or passages of the source.

Assays:
[1] = tested on: PC9, H1975, H522, HSAEC 1-KT, MDA-MB-231 and PC3 cell lines; assay: Cell viability, statements over all cell lines studied; assay type: cell-based; conditions: for EC50: read-out: EC50
[2] = tested on: MDA-MB-231 triple-negative breast cancer cells; assay: Cell viability, MDA-MB-231; assay type: cell-based; conditions: Homo sapiens
[3] = biological target: T1, wildtype Taspase1 (split Tasp1 WT) (Homo sapiens, UniProt Q9H6P5); assay: biochemical
T1 sequence (Q9H6P5 1-233): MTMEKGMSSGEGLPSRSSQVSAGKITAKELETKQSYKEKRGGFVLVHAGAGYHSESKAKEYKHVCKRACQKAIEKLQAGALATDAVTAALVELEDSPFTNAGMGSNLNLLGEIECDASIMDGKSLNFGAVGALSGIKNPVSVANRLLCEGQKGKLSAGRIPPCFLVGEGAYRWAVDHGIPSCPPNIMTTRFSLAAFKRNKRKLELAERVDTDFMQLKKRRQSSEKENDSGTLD
T1 sequence (Q9H6P5 234-420): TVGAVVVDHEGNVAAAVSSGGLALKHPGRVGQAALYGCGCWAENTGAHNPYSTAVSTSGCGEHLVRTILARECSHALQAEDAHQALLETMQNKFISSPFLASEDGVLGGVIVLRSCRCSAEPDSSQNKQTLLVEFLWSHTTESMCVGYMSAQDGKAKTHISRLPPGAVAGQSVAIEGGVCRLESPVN
Method: (§1) FIGS. 4A-4B. […] “Taspase1 IC50 (FAM)”=inhibition of cleavage of a Taspase1 peptide substrate; detected by fluorescence resonance energy transfer (FRET). “6.6 mM GSH added”=same assay, in the presence of 6.6 mM glutathione (GSH). […] “Ki”=Ki determined by kinact/Ki measurements, using the Taspase1/FRET-peptide assay described above.
To extend that assay, compounds are also tested in the presence of 6.6 mM GSH as a non-specific, but physiologically relevant, thiol competitor.

H522 lung cancer cells = assay: Cell viability, H522; assay type: cell-based; conditions: Homo sapiens
HSAEC 1-KT cells = assay: Cell viability, HSAEC 1-KT; assay type: cell-based; conditions: read-out: IC50 (μM) HSAEC 1-KT (Lung)
PC9 lung cancer cells = assay: Cell viability (CellTiter-Glo), PC9; assay type: cell-based
H1975 lung cancer cells = assay: Cell viability, H1975; assay type: cell-based; conditions: Homo sapiens
Taspase1 = biological target: T2, Taspase1 (Homo sapiens, UniProt Q9H6P5); assay: biochemical
T2 sequence (Q9H6P5 1-233): T1 sequence (Q9H6P5 1-233)
T2 sequence (Q9H6P5 234-420): T1 sequence (Q9H6P5 234-420)
Method: as §1
Ki is the binding constant that describes the energy of association for the non-covalent portion of the molecule. Kinact is the rate at which the covalent bond is formed between the small molecule and the protein.

PC3 prostate cells = assay: Cell viability, PC3; assay type: cell-based; conditions: read-out: IC50 (μM) PC3 (Prostate)
split Tasp1 WT = biological target: T3, split Tasp1 WT (Homo sapiens, UniProt Q9H6P5); assay: LC-MS tethering dose-response (DR50) assay; assay type: binding; conditions: relative to the other shouldered piperazine analogs
T3 construct: residues 1-233 (alpha domain) in Multiple Cloning Site-1 (MCS-1); residues 234-420 (beta domain) in MCS-2; His6 (TEV-cleavable) (N, cleaved yes); made in house; host or cells: E. coli Rosetta2(DE3)
T3 sequence (Q9H6P5 1-233): T1 sequence (Q9H6P5 1-233)
T3 sequence (Q9H6P5 234-420): T1 sequence (Q9H6P5 234-420)

[4] = Stability of shouldered triazole compound (method not described)
[5] = MDA-MB-231, Table 2a cytotoxicity, read-out: IC50 (μM) MDA-MB-231 (Breast)
[6] = Biochemical IC50 (nM) +6.6 mM GSH, Table 1, +6.6 mM GSH, 3FAM/QXL520 fluorescent dyes
[7] = Biochemical IC50 (nM) no GSH, Table 1, no GSH, 3FAM/QXL520 fluorescent dyes
[8] = WT IC50 (nM) 6.6 mM GSH, Table 1a, 6.6 mM GSH, average ± std dev
[9] = WT IC50 (nM) No GSH, Table 1a, no GSH, average ± std dev
[10] = NCI-H522, Table 2a cytotoxicity, read-out: IC50 (μM) H522 (Lung)
[11] = Table 2a cytotoxicity, read-out: IC50 (μM) PC9 (Lung)
[12] = NCI-H1975, read-out: IC50 (μM) H1975 (Lung), Table 2a cytotoxicity
[13] = read-out: kinact (s^−1), Table 1
[14] = read-out: kinact (s^−1), Table 1a
[15] = MDA-MB-231, Table 2, read-out: MDA-MB-231 [Breast]
[16] = NCI-H1975, read-out: H1975 [Lung] (uM), Table 2

SMILES | IC50 [2, 5] [µM] | IC50 [3, 6] [nM] | IC50 [3, 7] [nM] | IC50 ([3]; IC50 vs split Tasp1 WT) [nM] | IC50 [3, 8] [nM] | IC50 [3, 9] [nM] | IC50 (PC9 lung cancer cells; [11]) [µM] | IC50 (H1975 lung cancer cells; [12]) [µM] | Ki (Taspase1; Ki (uM), Table 1) [µM] | Ki (Taspase1; Ki (μM), Table 1a) [µM] | kinact (Taspase1; [13]) [s⁻¹] | kinact (Taspase1; [14]) [s⁻¹] | also measured
C=CS(=O)(=O)N1CCN(Cc2ccc(OC(F)(F)F)c(F)c2)[C@@H](CCO)C1 [SMDC069, 2-[(2S)-4-(ethenesulfonyl)-1-{[3-fluoro-4-(trifluoromethoxy)phenyl]methyl}piperazin-2-yl]ethan-1-ol] | 6 ± 4.1 | 273 | 17 | ~20 | 273 ± 68 | 25 ± 16 | 3.9 ± 2.6 | 3.6 ± 2.2 | 23.2 | 33 | 0.082 | 0.112 | EC50 [1]: 2 to 6 µM; IC50 (H522 lung cancer cells; [10]): 2 µM; IC50 (HSAEC 1-KT cells; Table 2a cytotoxicity): 3.2 µM; IC50 (PC9 lung cancer cells; 72 h, FIG. 3B, read-out: IC50, reduced viability of EGFR mutant PC9 lung cancer cells): ~2 µM; IC50 (PC3 prostate cells; Table 2a cytotoxicity): 3.4 µM
C=CS(=O)(=O)NCCCc1ccc(OC(F)(F)F)cc1 [SMDC714] |  |  |  | 16000 |  |  |  |  |  |  |  |  | 
CN(C)CCSSCCCC(=O)NCc1ccc(OC(F)(F)F)cc1 [SMDC208, 4-{[2-(dimethylamino)ethyl]disulfanyl}-N-{[4-(trifluoromethoxy)phenyl]methyl}butanamide] |  |  |  | 30300 |  |  |  |  |  |  |  |  | 
C=CS(=O)(=O)N1CCN(Cc2ccc(OC(F)(F)F)c(F)c2)[C@@H](CN2CCS(=O)(=O)CC2)C1 [SMDC275, 4-{[(2S)-4-(ethenesulfonyl)-1-{[3-fluoro-4-(trifluoromethoxy)phenyl]methyl}piperazin-2-yl]methyl}-1λ^6-thiomorpholine-1,1-dione] | 4.3 | 420 | 27 | ~20 | 420 ± 80 | 38 ± 16 | 3.5 | 2.6 |  |  |  |  | IC50 [2, 15]: 4.3 µM; binding affinity in the tethering assay (split Tasp1 WT): enhanced binding affinity; IC50 (PC9 lung cancer cells; Table 2, read-out: PC9 [Lung]): 3.5 µM; IC50 (H1975 lung cancer cells; [16]): 2.6 µM
CN(C)CCSSCCCNC(=O)Cc1ccc(OC(F)(F)F)cc1 [SMDC673, N-(3-{[2-(Dimethylamino)ethyl]disulfanyl}propyl)-2-[4-(trifluoromethoxy)phenyl]acetamide] |  |  |  | 11300 |  |  |  |  |  |  |  |  | 
C=CS(=O)(=O)N1CCN(Cc2ccc(OC(F)(F)F)cc2)CC1 [SMDC967, 1-(ethenesulfonyl)-4-{[4-(trifluoromethoxy)phenyl]methyl}piperazine] |  |  | 168 | 114 |  | 168 ± 54 |  |  | 6.02 | 30 | 0.011 | 0.004 | 
C=CS(=O)(=O)N1CCN(Cc2ccc(OC(F)(F)F)c(F)c2)CC1 [SMDC689, 1-(Ethenesulfonyl)-4-{[3-fluoro-4-(trifluoromethoxy)phenyl]methyl}piperazine] | 16.5 ± 1.5 | 661 | 51 | 51 | 661 ± 152 | 51 ± 47 | 11 ± 1 | 17.6 ± 8.3 | 32.9 | 45.8 ± 13.4 | 0.028 | 0.031 ± 0.003 | IC50 (H522 lung cancer cells; [10]): 20 ± 10 µM; IC50 (HSAEC 1-KT cells; Table 2a cytotoxicity): 13 µM; IC50 (PC3 prostate cells; Table 2a cytotoxicity): 15 µM
C=CS(=O)(=O)N1CCN(Cc2ccc(OC(F)(F)F)c(F)c2)[C@@H](COCc2c[nH]nn2)C1 [SMDC556, (R)-2-(((1H-1,2,3-triazol-4-yl)methoxy)methyl)-1-(3-fluoro-4-(trifluoromethoxy)benzyl)-4-(vinylsulfonyl)piperazine] |  |  |  |  |  |  |  |  |  |  |  |  | stability [4]: too unstable
C=CS(=O)(=O)N1CCN(Cc2ccc(OC(F)(F)F)c(F)c2)[C@@H](COCc2cn[nH]c2)C1 [SMDC203, (R)-2-(((1H-pyrazol-4-yl)methoxy)methyl)-1-(3-fluoro-4-(trifluoromethoxy)benzyl)-4-(vinylsulfonyl)piperazine] | 15.5 ± 2.5 | 237 | 22 | ~20 | 237 ± 40 | 32 ± 18 | 10.3 ± 0.3 | 9.6 ± 1.5 | 27.7 | 45 | 0.048 | 0.061 | EC50 [1]: 9.6 to 15.5 µM; IC50 [2, 15]: ~13 µM; IC50 (PC9 lung cancer cells; Table 2, read-out: PC9 [Lung]): 10.5 µM; IC50 (H1975 lung cancer cells; [16]): 8.1 µM; IC50 (PC3 prostate cells; Table 2a cytotoxicity): 15 µM
C#CCOC[C@H]1CN(S(=O)(=O)C=C)CCN1Cc1ccc(OC(F)(F)F)c(F)c1 [SMDC883, (2R)-4-(ethenesulfonyl)-1-{[3-fluoro-4-(trifluoromethoxy)phenyl]methyl}-2-[(prop-2-yn-1-yloxy)methyl]piperazine] |  | 340 | 26 | ~20 | 340 ± 30 | 26 ± 8 |  |  | 64.3 | 87 | 0.037 | 0.045 | 
C=CS(=O)(=O)N1CCN(Cc2cccc(OC(F)(F)F)c2)CC1 [SMDC723, 1-(3-(Trifluoromethoxy)benzyl)-4-(vinylsulfonyl)piperazine] |  |  |  | 40000 |  |  |  | 27.8 ± 5.6 |  |  |  |  | IC50 ([1]; all cell lines studied, read-out: IC50 against cell lines studied): > 20 µM; IC50 [2, 15]: ~37 µM; IC50 ([2]; MDA-MB-231, read-out: IC50 (μM) MDA-MB-231 (Breast), Table 2a cytotoxicity): 37 µM; IC50 (H522 lung cancer cells; NCI-H522, read-out: IC50 (μM) H522 (Lung)): 24.4 ± 1.7 µM; IC50 (HSAEC 1-KT cells): ~32 µM; IC50 (PC9 lung cancer cells; Table 2, read-out: PC9 [Lung]): ~22 µM; IC50 (PC9 lung cancer cells; read-out: IC50 (μM) PC9 (Lung), Table 2a cytotoxicity): 25.8 ± 2.7 µM; IC50 (H1975 lung cancer cells; [16]): ~20 µM; IC50 (PC3 prostate cells): ~28 µM
